pIC50, pKi: −log10 of the molar value. Converted amounts (≈) assume the structure as drawn. Starred links: 1 amine or outer side, 2 acyl side, 3 side chain; linkers in the order of their positions; H or OH if unused. Non-standard residues stand in square brackets, D forms with d. Residues, ends and D or L forms follow the SMILES beside them. X2 = C[C@@H]1CC(O)O[C@H]1[C@H](C(=O)[*:2])N(C)[*:1]; X1 = C[C@@H]1CCO[C@H]1[C@H](C(=O)[*:2])N(C)[*:1]; NMeL = CN[C@@H](CC(C)C)C(=O)O; dNMeL = CN[C@H](CC(C)C)C(=O)O; dNMeV = CN[C@@H](C(=O)O)C(C)C; dNMeA = CN[C@H](C)C(=O)O Some results are limits rather than exact numbers.

Here are results for 9 molecules from patent US9914755B2, “Cyclosporin derivatives wherein the MeBmt sidechain has been cyclized” (Allergan, Inc., priority 2015, dated 2018).

One data set is described as follows: physchem. Conditions: 25 °C, pH 7.4, aqueous buffer, kinetic from dmso stock.
Data set [1] concerns the target T1, Human recombinant cyclophilin A (CypA) (Homo sapiens, UniProt P62937).
T1 construct: purchased Sigma C3805
As to the kind of experiment: Protease-free PPIase assay, cyclophilin A. In kind it is biochemical. As to conditions: human recombinant CypA, 10 °C, SUC-AAPF-pNA substrate; read-out: CypA Protease-free PPIase Assay Ki. The procedure: (§1) Protease-Free PPIase Assay The protease-free PPIase assay measures the rate of cis to trans conversion of a peptide substrate catalyzed by the enzyme cyclophilin A or D. Addition of a cyclophilin inhibitor (e.g., a test compound) slows the catalyzed rate and a Ki value is obtained. 35 mM HEPES pH 7.8, filtered through a 0.2 μm filter. 50 μM DTT was added prior to use each day and then the buffer was stored on ice. […] Human recombinant 6-His tagged cyclophilin D (CypD), prepared by the University of Edinburgh, was used to generate CypD inhibition data. Succinimide-[…]-nitroanilide (SUC-AAPF-pNA) (from Bachem AG, L-1400), 20 mg/ml prepared in 0.5 M LiCl in trifluoroethanol. All readings were taken with an Agilent 8453 Spectrophotometer which consisted of a cuvette holder, stirrer and chiller to maintain a stirred cuvette temperature of 10.0±0.1° C. The temperature was monitored by the use of temperature probe. […] The inhibitor was diluted in 100% DMSO, and then added to the assay to a maximum final concentration of 0.5% DMSO in the assay. […] The absorbance was measured at 330 nm for 300 s or 500 s for blank runs (NOTE: the substrate was added in one quick injection and the measurements started immediately to minimize mixing errors). A first order rate equation was fitted to the absorbance data, for each concentration of inhibitor, to obtain the rate constant (the first 10 to 15 seconds were excluded, as mixing causes errors in this portion of the curve). The catalytic rate was calculated from the enzymatic rate constant minus the background rate constant. An exponential curve was generated using the catalytic rate constants versus the inhibitor concentration to obtain the Ki value for the inhibitor. The Ki value is indicative of the binding affinity between the test compound and cyclophilin A.

The target in a further data set is T2, calcineurin (Homo sapiens, UniProt P62937+P63098+Q08209).
T2 construct: purchased Enzo Life Sciences BML-AK804
Description: Calcineurin Phosphatase (CaN) Assay. In kind it is biochemical. Conditions: in the presence of CypA, 1:1 complex of inhibitor with CypA. The source says:
Calcineurin Phosphatase (CaN) Assay
The calcineurin phosphatase assay is a means for estimating the immunosuppressive potential of a test compound. Calcineurin is a serine-threonine protein phosphatase that on activation dephosphorylates members of the nuclear factor of activated T cells (NFAT), which are important in T lymphocyte activation.
To investigate the immunosuppressive potential of exemplary compounds of Formula I, which are cyclosporin analogs, their ability to inhibit calcineurin activity was measured in the presence and absence of CypA.
The CaN assay kit used is based on a colorimetric assay for measuring calcineurin phosphatase activity, and it is commercially available (Enzo Life Sciences and Calbiochem). Calmodulin is also required for calcineurin activity, and RII phosphopeptide is used as an efficient peptide substrate for calcineurin. […] The detection of free phosphate released is based on the classic Malachite green assay.
Enzo Life Sciences CaN Assay Kit: BML-AK804
For samples ‘without CypA’, a 4-point dilution series of the inhibitor was prepared in duplicate to obtain a final assay concentration of 10, 1, 0.1 and 0.01 μM. For samples ‘with CypA’, a 7-point dilution series was prepared to obtain a 1:1 complex of the inhibitor with CypA; the inhibitor and CypA final assay concentrations of 10, 3.33, 1.11, 0.37, 0.12, 0.04, 0.014 μM were prepared.
using the half area 96 well plates supplied with the kit, 10 μl UPW was added to duplicate wells to provide the non-inhibited control. 10 μl of the inhibitor or the inhibitor/CypA complex was added to the appropriate sample wells. 25 μl of the 2× assay buffer with calmodulin (CaM) was added to all wells, then 5 μl of calcineurin phosphatase (CaN) was added to all wells (40 U per well final concentration) except duplicate ‘no calcineurin blank’ wells to which 5 μL 1× assay buffer was added. The assay plate was placed in an oven at 30° C. for 15 minutes to equilibrate to the reaction temperature. The reaction was started by the addition of 10 μl RII-peptide (0.15 mM final concentration). The reaction was allowed to proceed at 30° C. for a time period in which the reaction is linear for about 60 minutes. The reaction was then terminated by adding 100 μl of the Malachite Green reagent. The color was allowed to develop for 15-30 minutes at room temperature before the absorbance at 620 nm was measured using a plate reader (Molecular Devices—SpectraMax M5). The data were analyzed by subtracting ‘no calcineurin blank’ from all the absorbance readings and plotting the background corrected absorbances against Log10 inhibitor concentration. A sigmoidal-dose response curve was fitted to the data using GraphPad Prism Software.
It exerts its immunosuppressive activity by binding to CypA to form a complex, which then binds to calcineurin and thereby inhibits calcineurin activity.

The target of data set [2] is T3, Human recombinant 6-His tagged cyclophilin D (CypD) (Homo sapiens, UniProt P30405).
T3 construct: 6-His
Description: Protease-free PPIase assay, cyclophilin D. As to conditions: human recombinant 6-His CypD, 10 °C, SUC-AAPF-pNA substrate; read-out: CypD Protease-free PPIase Assay Ki. In kind it is biochemical. On the procedure: as §1

T1 sequence (P62937 whole entry): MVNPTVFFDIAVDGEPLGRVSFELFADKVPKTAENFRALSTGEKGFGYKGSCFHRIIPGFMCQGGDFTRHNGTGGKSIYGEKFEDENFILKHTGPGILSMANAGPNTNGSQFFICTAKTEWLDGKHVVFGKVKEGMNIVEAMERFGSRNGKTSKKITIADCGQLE
T3 sequence (P30405 30-207): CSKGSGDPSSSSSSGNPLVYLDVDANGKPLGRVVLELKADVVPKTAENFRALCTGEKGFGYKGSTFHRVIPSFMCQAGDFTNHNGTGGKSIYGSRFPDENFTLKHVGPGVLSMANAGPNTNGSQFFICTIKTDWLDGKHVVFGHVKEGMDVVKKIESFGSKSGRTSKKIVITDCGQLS
Description for physchem: The aqueous solubility of a compound of Formula I in buffer (pH 7.8) was measured by recording the onset of precipitation of the compound as a function of increasing concentration. The onset of precipitation, if it occurred, was detected by an increase in absorbance at 650 nm.
Stock solutions of Control and Test Compounds: 10 mM in 100% DMSO.
10 mM stock solutions of control and test compounds were prepared in 100% DMSO.
Assay buffer (247.5 μl) was placed into a flat bottomed transparent 96-well plate. For blank samples, DMSO (2.5 μl) was added. For test and control samples, 2.5 μl of the appropriate DMSO dilution stocks were added to the appropriate well. All test and control compounds were performed in triplicate.
The plates were sealed with adhesive plate seal and shaken at 250 rpm at 25° C. for 18 h on a plate shaker. After incubation, the plate seals were taken off and any bubbles observed in wells removed. The plates were read on a SpectraMaxM5 with a 5 s pre-shake at 650 nm.
Data files were transferred to the appropriate worksheet and the solubility range of the compounds was calculated from the data.

In “physchem”, `CC(C)C[C@@H]1C(=O)N(C)[C@H](CC(C)C)C(=O)N(C)[C@H](C(C)C)C(=O)N(C)[C@H]([C@@H]2OCC[C@H]2C)C(=O)N[C@H](C)C(=O)N(C)[C@H](C)C(=O)N(C)[C@@H](CC(C)C)C(=O)N[C@H](C(C)C)C(=O)N(C)[C@H](CC(C)C)C(=O)N[C@H](C)C(=O)N[C@@H](C)C(=O)N1C` [Compound 10, [(2S)-2-(methylamino)-2-[(2R,3R)-3-methyltetrahydrofuran-2-yl]acetic acid]^1 [(R)-methyl-Sar]^3 cyclosporin B] (cyclo(A[dNMeL][dNMeL][dNMeV][X1][dA][dNMeA][NMeL][dV][dNMeL][dA])) had a solubility at 18 h above 100 µM. The figures for the pKi in data set [1] and in data set [2] were 5.70 and 6.17, respectively. Besides, the pIC50 at calcineurin was below 5.00.

The molecule `CC[C@H]1NC(=O)[C@@H]([C@@H]2OCC[C@H]2C)N(C)C(=O)[C@@H](C(C)C)N(C)C(=O)[C@@H](CC(C)C)N(C)C(=O)[C@@H](CC(C)C)N(C)C(=O)[C@H](C)NC(=O)[C@@H](C)NC(=O)[C@@H](CC(C)C)N(C)C(=O)[C@@H](C(C)C)NC(=O)[C@H](CC(C)C)N(C)C(=O)[C@@H](C)N(C)C1=O` [Compound 3, [(2S)-2-(methylamino)-2-[(2R,3R)-3-methyltetrahydrofuran-2-yl]acetic acid]^1 [(R)-methyl-Sar]^3 cyclosporin A] showed a solubility at 18 h in the data set “physchem” above 100 µM. Also, the results for the pKi in data set [1] and in data set [2] were 7.02 and 8.36, respectively. Also, the pIC50 at calcineurin was below 5.00.

As to `CC[C@H]1NC(=O)[C@@H]([C@@H]2OC(=O)N(C)C[C@H]2C)N(C)C(=O)[C@@H](C(C)C)N(C)C(=O)[C@@H](CC(C)C)N(C)C(=O)[C@@H](CC(C)C)N(C)C(=O)[C@H](C)NC(=O)[C@@H](C)NC(=O)[C@@H](CC(C)C)N(C)C(=O)[C@@H](C(C)C)NC(=O)[C@H](CC(C)C)N(C)C(=O)[C@@H](C)N(C)C1=O` [Compound 22], the solubility at 18 h in “physchem” is above 100 µM. The values for the pKi in data set [1] and in data set [2] were 6.50 and 6.80, respectively. The pIC50 on calcineurin was below 5.00.

In the data set “physchem”, `CC[C@H]1NC(=O)[C@H]([C@H]2OCC[C@H]2C)N(C)C(=O)[C@@H](C(C)C)N(C)C(=O)[C@@H](CC(C)C)N(C)C(=O)[C@@H](CC(C)C)N(C)C(=O)[C@H](C)NC(=O)[C@@H](C)NC(=O)[C@@H](CC(C)C)N(C)C(=O)[C@@H](C(C)C)NC(=O)[C@H](CC(C)C)N(C)C(=O)[C@@H](C)N(C)C1=O` [Compound 18, [(2S)-2-(methylamino)-2-[(2S,3R)-3-methyltetrahydrofuran-2-yl]acetic acid]^1 [(R)-methyl-Sar]^3 cyclosporin A] yielded a solubility at 18 h of 25 µM (≈ 29.7 µg/mL). In addition, the pKi was 7.10 in data set [1] and 7.82 in data set [2]. Moreover, at calcineurin, the pIC50 was below 5.00.

Consider `CC(C)C[C@@H]1C(=O)N(C)[C@H](CC(C)C)C(=O)N(C)[C@H](C(C)C)C(=O)N(C)[C@H]([C@@H]2OC(O)C[C@H]2C)C(=O)N[C@H](C(C)C)C(=O)N(C)[C@H](C)C(=O)N(C)[C@@H](CC(C)C)C(=O)N[C@H](C(C)C)C(=O)N(C)[C@H](CC(C)C)C(=O)N[C@H](C)C(=O)N[C@@H](C)C(=O)N1C` (stereo partly drawn) [Compound 14, [(2S)-2-[(2R,3R)-5-Hydroxy-3-methyl-tetrahydrofuran-2-yl]-2-(methylamino)acetic acid]^1 [(R)-methyl-Sar]^3 cyclosporin D] (cyclo(A[dNMeL][dNMeL][dNMeV][X2][dV][dNMeA][NMeL][dV][dNMeL][dA])), for which the solubility at 18 h in “physchem” is above 100 µM. The pKi in data set [1] is 7.69; in data set [2], 8.08. In addition, the pIC50 on calcineurin is below 5.00.

In “physchem”, `CC[C@@H]1C(=O)N(C)[C@@H](CC(C)C)C(=O)N[C@H](C(C)C)C(=O)N(C)[C@H](CC(C)C)C(=O)N[C@H](C)C(=O)N[C@@H](C)C(=O)N(C)[C@H](CC(C)C)C(=O)N(C)[C@H](CC(C)C)C(=O)N(C)[C@H](C(C)C)C(=O)N(C)[C@H]([C@@H]2OCC[C@H]2C)C(=O)N[C@H](CC)C(=O)N1C` [Compound 1, [(2S)-2-(methylamino)-2-[(2R,3R)-3-methyltetrahydrofuran-2-yl]acetic acid]^1 [(R)-ethyl-Sar]^3 cyclosporin A] returned a solubility at 18 h of 75 µM (≈ 90.2 µg/mL). Besides, the figures for the pKi in data set [1] and in data set [2] were 7.09 and 8.01, respectively. Besides, on calcineurin, the pIC50 was below 5.00.

Molecule `CC[C@H]1NC(=O)[C@@H]([C@@H]2OCC[C@H]2C)N(C)C(=O)[C@@H](C(C)C)N(C)C(=O)[C@@H](CC(C)C)N(C)C(=O)[C@@H](CC(C)C)N(C)C(=O)[C@H](C)NC(=O)[C@@H](C)NC(=O)[C@@H](CC(C)C)N(C)C(=O)[C@@H](C(C)C)NC(=O)[C@H](CC(C)C)N(C)C(=O)[C@@H](C(F)F)N(C)C1=O` [Compound 5, [(2S)-2-(methylamino)-2-[(2R,3R)-3-methyltetrahydrofuran-2-yl]acetic acid]^1 [(S)-difluoromethyl-Sar]^3 cyclosporin A] had a solubility at 18 h in “physchem” of 50 µM (≈ 61.2 µg/mL). For the same molecule, the pKi is 6.70 in data set [1] and 7.84 in data set [2]. Moreover, the pIC50 at calcineurin is below 5.00.

In the data set “physchem”, `CC[C@H]1NC(=O)[C@@H]([C@@H]2OCN(C)C[C@H]2C)N(C)C(=O)[C@@H](C(C)C)N(C)C(=O)[C@@H](CC(C)C)N(C)C(=O)[C@@H](CC(C)C)N(C)C(=O)[C@H](C)NC(=O)[C@@H](C)NC(=O)[C@@H](CC(C)C)N(C)C(=O)[C@@H](C(C)C)NC(=O)[C@H](CC(C)C)N(C)C(=O)[C@@H](C)N(C)C1=O` [Compound 24] came in with a solubility at 18 h above 100 µM. The pKi in data set [1] was 6.26; in data set [2] it was 7.10. Moreover, the pIC50 on calcineurin was below 5.00.

On to `CC(C)C[C@@H]1C(=O)N(C)[C@H](CC(C)C)C(=O)N(C)[C@H](C(C)C)C(=O)N(C)[C@H]([C@@H]2OCC[C@H]2C)C(=O)N[C@H](C(C)C)C(=O)N(C)[C@H](C)C(=O)N(C)[C@@H](CC(C)C)C(=O)N[C@H](C(C)C)C(=O)N(C)[C@H](CC(C)C)C(=O)N[C@H](C)C(=O)N[C@@H](C)C(=O)N1C` [Compound 6, [(2S)-2-(methylamino)-2-[(2R,3R)-3-methyltetrahydrofuran-2-yl]acetic acid]^1 [(R)-methyl-Sar]^3 cyclosporin D] (cyclo(A[dNMeL][dNMeL][dNMeV][X1][dV][dNMeA][NMeL][dV][dNMeL][dA])), for which the solubility at 18 h in “physchem” was found to be 50 µM (≈ 60.1 µg/mL). Besides, the pKi is 8.25 in data set [1] and 8.72 in data set [2]. Moreover, the pIC50 on calcineurin was below 5.00.

In general, solubility refers to how much of the substance goes into solution per volume. As a reminder, the pKi is −log10 of the Ki, conventionally taken in molar units. As usually defined, the pIC50 is the negative decadic logarithm of the IC50, by convention in mol/L.
